Measurements: patent publication US7897593B2, “HIV integrase inhibitors” (priority 2006, dated 2011)

Tests used:
HIV-integrase = biological target: T1, HIV-integrase (Human immunodeficiency virus type 1 group M subtype B, UniProt P12497); experiment: HIV-Integrase Inhibition Activity (SPA strand transfer assay); format: biochemical; settings: recombinant integrase, SPA beads, P33 labeled target DNA
T1 construct: Recombinant integrase (0.26 ng) was incubated with the beads
Protocol: HIV-Integrase InhibitionActivity. To evaluate in-vitro activity against HIV-integrase, 5 pmole of biotin labeled substrate DNA was bound to 100 μg of Streptavidin coated PVT SPA beads (Amersham Pharmacia Biotech). Recombinant integrase (0.26 ng) was incubated with the beads for 90 min at 37° C. Unbound enzyme was removed by washing the complex followed by addition of inhibitors and 0.1 fmol of P33 labeled target DNA. The reaction was stopped by adding EDTA to a final concentration of 10 mM. Samples were counted in TopCountNXT (Packard) and the CPM was used as a measure of integration. The reaction condition was as described in A. Engelman and R. Craigie, J. Virol 69, 5908-5911 (1995). The sequences of substrate and target DNA were described in Nucleic Acid Research 22, 1121-1122 (1994). Activity equal to A refers to a compound having IC50=0.001 to 0.01 μM B=0.01-0.1, and C≧0.1 μM respectively.

[1] = system: recombinant NL-Rluc virus; experiment: Inhibition of HIV replication; format: cell-based; settings: Human immunodeficiency virus 1, read-out: Antiviral Activity, NL-RLuc virus; three serum conditions described, the one tabulated is not stated

| Compound | IC50 (HIV-integrase) [µM] | EC50 [1] [µM] |
| --- | --- | --- |
| CN(C)C(=O)N1CCC2(CC1)OCCn1c2nc(C(=O)NCc2ccc(F)cc2-n2cncn2)c(O)c1=O [Example 5] | 0.001 to 0.01 | 0.001 to 0.01 |
| O=C(NCc1ccc(F)cc1)c1nc2n(c(=O)c1O)CCOCC21CCN(C(=O)OCc2ccccc2)CC1 [Example 54] | 0.01 to 0.1 | 0.01 to 0.1 |
| Cc1ncnn1-c1cc(F)ccc1CNC(=O)c1nc2n(c(=O)c1O)CCOC21CCN(C(=O)OC(C)C)C1 (stereo not shown) [Example 43, Isopropyl 2-(4-fluoro-2-(5-methyl-1H-1,2,4-triazol-1-yl)benzylcarbamoyl)-3-hydroxy-4-oxo-6,7-dihydro-4H-spiro[pyrimido[2,1-c][1,4]oxazine-9,3′-pyrrolidine]-1′-carboxylate] | 0.01 to 0.1 | 0.01 to 0.1 |
| CCOC(=O)N1CCC2(CC1)OCCn1c2nc(C(=O)NCc2ccc(F)cc2-n2cnc(C)n2)c(O)c1=O [Example 33, Ethyl 2′-(4-fluoro-2-(3-methyl-1H-1,2,4-triazol-1-yl)benzylcarbamoyl)-3′-hydroxy-4′-oxo-6′,7′-dihydro-4′H-spiro[piperidine-4,9′-pyrimido[2,1-c][1,4]oxazine]-1-carboxylate] | 0.001 to 0.01 | 0.001 to 0.01 |
| CN(C)C(=O)N1CCC2(CC1)OCCn1c2nc(C(=O)NCc2ccc(F)cc2)c(O)c1=O [Example 6] | 0.001 to 0.01 | 0.001 to 0.01 |
| CS(=O)(=O)N1CCC2(C1)OCCn1c2nc(C(=O)NCc2ccc(F)cc2)c(O)c1=O (stereo not shown) [Example 38, N-(4-Fluorobenzyl)-3-hydroxy-1′-(methylsulfonyl)-4-oxo-6,7-dihydro-4H-spiro[pyrimido[2,1-c][1,4]oxazine-9,3′-pyrrolidine]-2-carboxamide] | 0.001 to 0.01 | 0.01 to 0.1 |
| CN(C)C(=O)C(=O)N1CCC2(CC1)OCCn1c2nc(C(=O)NCc2ccc(F)cc2)c(O)c1=O [Example 30, 1-(2-(Dimethylamino)-2-oxoacetyl)-N-(4-fluorobenzyl)-3′-hydroxy-4′-oxo-6′,7′-dihydro-4′H-spiro[piperidine-4,9′-pyrimido[2,1-c][1,4]oxazine]-2′-carboxamide] | 0.001 to 0.01 | 0.01 to 0.1 |
| O=C(NCc1ccc(F)cc1)c1nc2n(c(=O)c1O)CCOC21CCN(C(=O)OCc2ccccc2)C1 (stereo not shown) [Example 36, Benzyl 2-(4-fluorobenzylcarbamoyl)-3-hydroxy-4-oxo-6,7-dihydro-4H-spiro[pyrimido[2,1-c][1,4]oxazine-9,3′-pyrrolidine]-1′-carboxylate] | 0.001 to 0.01 | 0.001 to 0.01 |
| O=C(NCc1ccc(F)cc1)c1nc2n(c(=O)c1O)CCCCC21CCN(C(=O)OCc2ccccc2)CC1 [Example 56] | 0.01 to 0.1 | 0.01 to 0.1 |
| CC1CN(S(=O)(=O)c2cc(F)ccc2CNC(=O)c2nc3n(c(=O)c2O)CCCOC32CCN(C(=O)OCc3ccccc3)CC2)CC(C)N1 (stereo not shown) [Example 49] | 0.01 to 0.1 | 0.01 to 0.1 |
| Cc1ccc(S(=O)(=O)N2CCC3(CC2)OCCn2c3nc(C(=O)NC(C)c3ccc(F)cc3)c(O)c2=O)cc1 (stereo not shown) [Example 13] | 0.01 to 0.1 | 0.01 to 0.1 |
| COC(=O)C(=O)N1CCC2(CC1)OCCn1c2nc(C(=O)NCc2ccc(F)cc2-n2ncnc2C)c(O)c1=O [Example 26, Methyl 2-(2′-(4-fluoro-2-(5-methyl-1H-1,2,4-triazol-1-yl)benzylcarbamoyl)-3′-hydroxy-4′-oxo-6′,7′-dihydro-4′H-spiro[piperidine-4,9′-pyrimido[2,1-c][1,4]oxazine]-1-yl)-2-oxoacetate] | 0.01 to 0.1 | 0.01 to 0.1 |
| Cc1ncn(-c2cc(F)ccc2CNC(=O)c2nc3n(c(=O)c2O)CCOC32CCN(S(=O)(=O)c3cc(F)ccc3C)CC2)n1 [Example 20] | 0.001 to 0.01 | 0.001 to 0.01 |
| COC(=O)N1CCC2(CC1)OCCn1c2nc(C(=O)NCc2ccc(F)cc2)c(O)c1=O [Example 4] | 0.001 to 0.01 | 0.001 to 0.01 |
| CN(C)S(=O)(=O)N1CCC2(CC1)OCCn1c2nc(C(=O)NCc2ccc(F)cc2)c(O)c1=O [Example 2] | 0.001 to 0.01 | 0.001 to 0.01 |
| CC(C)OC(=O)N1CCC2(C1)OCCn1c2nc(C(=O)NCc2ccc(F)cc2)c(O)c1=O (stereo not shown) [Example 42, Isopropyl 2-(4-fluorobenzylcarbamoyl)-3-hydroxy-4-oxo-6,7-dihydro-4H-spiro[pyrimido[2,1-c][1,4]oxazine-9,3′-pyrrolidine]-1′-carboxylate] | 0.001 to 0.01 | 0.001 to 0.01 |
| Cc1ncnn1-c1cc(F)ccc1CNC(=O)c1nc2n(c(=O)c1O)CCOC21CCN(C(=O)C(=O)N(C)C)CC1 [Example 27, 1-(2-(Dimethylamino)-2-oxoacetyl)-N-(4-fluoro-2-(5-methyl-1H-1,2,4-triazol-1-yl)benzyl)-3′-hydroxy-4′-oxo-6′,7′-dihydro-4′H-spiro[piperidine-4,9′-pyrimido[2,1-c][1,4]oxazine]-2′-carboxamide] | 0.01 to 0.1 | > 0.1 |
| Cc1ccc(F)cc1S(=O)(=O)N1CCC2(CC1)OCCn1c2nc(C(=O)NCc2ccc(F)cc2)c(O)c1=O [Example 18] | 0.001 to 0.01 | 0.001 to 0.01 |

| Compound | IC50 (HIV-integrase) [µM] | EC50 [1] [µM] |
| --- | --- | --- |
| Cc1ncnn1-c1cc(F)ccc1CNC(=O)c1nc2n(c(=O)c1O)CCOC21CCN(S(C)(=O)=O)C1 (stereo not shown) [Example 39, N-(4-Fluoro-2-(5-methyl-1H-1,2,4-triazol-1-yl)benzyl)-3-hydroxy-1′-(methylsulfonyl)-4-oxo-6,7-dihydro-4H-spiro[pyrimido[2,1-c][1,4]oxazine-9,3′-pyrrolidine]-2-carboxamide] | 0.01 to 0.1 | 0.01 to 0.1 |
| Cc1ccc(S(=O)(=O)N2CCC3(CC2)OCCn2c3nc(C(=O)NCc3ccc(F)cc3-n3ncnc3C)c(O)c2=O)cc1 [Example 16] | 0.01 to 0.1 | 0.001 to 0.01 |
| CS(=O)(=O)N1CCC2(CC1)OCCn1c2nc(C(=O)NCc2ccc(F)cc2)c(O)c1=O [Example 8] | 0.001 to 0.01 | 0.001 to 0.01 |
| O=C(NCc1ccc(F)cc1S(=O)(=O)N1CCOCC1)c1nc2n(c(=O)c1O)CCCOC21CCN(C(=O)OCc2ccccc2)CC1 [Example 52] | 0.01 to 0.1 | 0.01 to 0.1 |
| Cc1ccc(F)cc1S(=O)(=O)N1CCC2(CC1)OCCn1c2nc(C(=O)NCc2ccc(F)cc2-n2cncn2)c(O)c1=O [Example 19] | 0.001 to 0.01 | 0.001 to 0.01 |
| Cc1ccc(S(=O)(=O)N2CCC3(CC2)OCCn2c3nc(C(=O)NCc3ccc(F)cc3)c(O)c2=O)cc1 [Example 12] | 0.01 to 0.1 | 0.001 to 0.01 |
| CS(=O)(=O)N1CCC2(CC1)OCCn1c2nc(C(=O)NCc2ccc(F)cc2-n2cncn2)c(O)c1=O [Example 7] | 0.001 to 0.01 | 0.001 to 0.01 |
| Cc1ncnn1-c1cc(F)ccc1CNC(=O)c1nc2n(c(=O)c1O)CCOC21CCN(C(=O)OCc2ccccc2)CC1 [Example 23] | 0.01 to 0.1 | 0.001 to 0.01 |
| CN(C)S(=O)(=O)N1CCC2(CC1)OCCn1c2nc(C(=O)NCc2ccc(F)cc2-n2cncn2)c(O)c1=O [Example 1, 1-(N,N-Dimethylsulfamoyl)-N-(4-fluoro-2-(1H-1,2,4-triazol-1-yl)benzyl)-3′-hydroxy-4′-oxo-6′,7′-dihydro-4′H-spiro[piperidine-4,9′-pyrimido[2,1-c][1,4]oxazine]-2′-carboxamide] | 0.001 to 0.01 | 0.001 to 0.01 |
| CNC(=O)c1nc2n(c(=O)c1O)CCOC21CCN(S(=O)(=O)c2cc(F)ccc2C)CC1 [Example 25, 1-(5-Fluoro-2-methylphenylsulfonyl)-3′-hydroxy-N-methyl-4′-oxo-6′,7′-dihydro-4′H-spiro[piperidine-4,9′-pyrimido[2,1-c][1,4]oxazine]-2′-carboxamide] | ≥ 0.1 | > 0.1 |
| COC(=O)C(=O)N1CCC2(CC1)OCCn1c2nc(C(=O)NCc2ccc(F)cc2)c(O)c1=O [Example 28, Methyl 2-(2′-(4-fluorobenzylcarbamoyl)-3′-hydroxy-4′-oxo-6′,7′-dihydro-4′H-spiro[piperidine-4,9′-pyrimido[2,1-c][1,4]oxazine]-1-yl)-2-oxoacetate] | 0.001 to 0.01 | 0.01 to 0.1 |
| CCOC(=O)N1CCC2(CC1)OCCn1c2nc(C(=O)NCc2ccc(F)cc2)c(O)c1=O [Example 31, Ethyl 2′-(4-fluorobenzylcarbamoyl)-3′-hydroxy-4′-oxo-6′,7′-dihydro-4′H-spiro[piperidine-4,9′-pyrimido[2,1-c][1,4]oxazine]-1-carboxylate] | 0.001 to 0.01 | 0.001 to 0.01 |
| COC(=O)N1CCC2(CC1)OCCn1c2nc(C(=O)NCc2ccc(F)cc2-n2cncn2)c(O)c1=O [Example 3] | 0.001 to 0.01 | 0.001 to 0.01 |
| O=C(NCc1ccc(F)cc1-n1cncn1)c1nc2n(c(=O)c1O)CCOC21CCN(C(=O)c2ccccc2)CC1 [Example 9] | 0.01 to 0.1 | 0.001 to 0.01 |
| Cc1ccc(S(=O)(=O)N2CCC3(CC2)OCCn2c3nc(C(=O)NCc3ccc(F)cc3-n3cncn3)c(O)c2=O)cc1 [Example 11] | 0.001 to 0.01 | 0.001 to 0.01 |
| CN(C)C(=O)C(=O)N1CCC2(C1)OCCn1c2nc(C(=O)NCc2ccc(F)cc2)c(O)c1=O (stereo not shown) [Example 40, 1′-(2-(Dimethylamino)-2-oxoacetyl)-N-(4-fluorobenzyl)-3-hydroxy-4-oxo-6,7-dihydro-4H-spiro[pyrimido[2,1-c][1,4]oxazine-9, 3′-pyrrolidine]-2-carboxamide] | 0.001 to 0.01 | 0.01 to 0.1 |
| Cc1ccc(F)cc1S(=O)(=O)N1CCC2(CC1)OCCn1c2nc(C(=O)NCc2ccc(F)cc2-n2ncnc2C)c(O)c1=O [Example 21] | 0.01 to 0.1 | 0.001 to 0.01 |
